Assay results from patent US20250295776A1, “CLEAVAGE RESISTANT CD16 CONSTRUCTS AND USES THEREOF” (Celularity Inc., priority 2022, published 2025).

What was measured:
[1] = test system: CD34+ cells; test: NK cell expansion in 35-day three-stage culture with CRL compounds; format: cell-based, human; conditions: for cell expansion compared to SR1: 10 μM, Day 35; for expansion, differentiation and cytotoxicity profiles compared to SR1: PNK-007 culture
Source text: (§1) UCB CD34+ cells were cultivated in presence of cytokines including thrombopoietin, SCF, Flt3 ligand, IL-7, IL-15 and IL-2 for 35 days to produce three-stage NK cells, as described in Example 1. Multi-color flow cytometry was used to determine the phenotypic characteristics of three-stage NK cells.
(§2) For biological testing, the compounds were provided to culture to evaluate their effects on NK cell expansion and differentiation. Specifically, donors of CD34+ cells (StemCell Technology) were thawed and expanded in vitro following NK culture protocol. During the first 14 days of the culture, each CRL compounds was dissolved in DMSO and added to the culture at 10 μM concentration. SR1 (at 10 μM) served as a positive control compound, while DMSO alone without any compound served as a negative control. At the end of the culture on Day 35, cell expansion, natural killer (NK) cell differentiation and cytotoxicity of the cells against K562 tumor cell line were characterized. Due to the large number of the compounds, the testing was performed in two experiments, CRL1-11 and CRL 12-22. The same donors were used for each experiment. Positive and negative controls were also included in both experiments.

[2] = test system: CD34+ cells; test: NK cell differentiation of compound-cultured cells (flow cytometry); format: cell-based, human
Source text: as §1, §2

[3] = test system: K562 tumor cell line; test: Cytotoxicity of compound-cultured cells against K562; format: cell-based; conditions: 10:1 E:T ratio
Experimental: as §2
Cytotoxicity assay was run using compound cultured cells against K562 tumor cells at 10:1 effector to target ratio (FIGS. 5A-5B) to evaluate cell functions.

[4] = test system: CD34 cells; test: CD34 cell expansion at Day 14 of the culture with CRL compounds; format: cell-based, human; conditions: 10 μM
Experimental: as §2

[5] = test system: CD16; test: NK surface markers and CD16 expression of PNK-CD16VP cells (flow cytometry, day 35); format: cell-based, human; conditions: n=8
Experimental: Non-transduced PNK cells (NT) served as a control. […] IgG was used as ADCC control. In vivo anti-tumor activity was assessed in a Daudi disseminated Xenograft model in NSG mice. […] Tumor burden in mice was monitored by Bioluminescence Imaging (BLI). Statistical differences between the groups were calculated using paired t-test using Prism.
Cell Expansion and Characterization: Cell expansion was recorded during the culture process.

[6] = test system: CD16; test: CD16VP shedding assay (PMA/ionomycin); format: cell-based, human
[7] = test system: CD16; test: CD16 expression of CD16 variants transduced CYNK cells (flow cytometry); format: cell-based, human
Experimental: (§3) Human placental CD34+ cells were transduced with a lentivirus vector expressing a CD16 variants as indicated and cultured for 35 days in the presence of cytokines, including thrombopoietin, SCF, Flt3 ligand, IL-7, IL-15 and IL-2, to generate CYNK cells.
The phenotype of CYNK cells was analyzed by multicolor flow cytometry. CYNK cells were washed and stained with fluorochrome-conjugated antibodies diluted in staining buffer [2% fetal bovine serum (FBS) in phosphate buffered saline (PBS)] according to the manufacturer's protocol. Dead cells were labelled with the Live/Dead Fixable Aqua Stain (Invitrogen, Cat #L34957) and gated out. Data were acquired on BD Fortessa X20 flow cytometer (BD Biosciences) and were analyzed using FlowJo software. The data were expressed as % positive cells gated under CD56+CD3-Aqua− single cells based on the viability staining used. Setting of the % positive gate was done using the corresponding isotype-stained samples as controls.

[8] = test system: CD16; test: Shedding assay of CD16 variants transduced CYNK cells (PMAi 2 h); format: cell-based, human; conditions: for CD16 shedding percentage: post 2 h PMAi stimulation, n=6 donors, Lentigen LVV
Experimental: Non-transduced (NT) CYNK cells were used as a control. After 2-hour stimulation, cells from each treatment condition were then washed twice with FACS buffer (PBS with 0.5 mM EDTA and 2% FBS) and incubated human Fc block (BD Biosciences, Cat #564220) at room temperature for 10 minutes. Staining was then performed with anti-human CD16 PE (BD Biosciences, Cat #556619), anti-human CD56 APC (BD Biosciences, Cat #555518), and anti-human CD3 APC-H7 (BD Biosciences, Cat #560176), or with the corresponding isotype controls for 30 minutes at 4° C. Following washing 2× with FACS buffer the viability stain 7-Aminoactinomycin D (7-AAD) (BD Biosciences, Cat #559925) was added to all stained samples and incubated for ten minutes prior to data acquisition. The data was acquired on a […] (BD Biosciences, San Jose, CA) and analyzed in FlowJo (Tree Star, Ashland, OR). The data were expressed as % CD56^+CD16+ cells gated under 7-AAD^− cells. Setting of the % positive gate was done using isotype-stained samples as controls.

[9] = test system: HER2+ NCI-N87 gastric tumor cell line; test: xCELLigence real time cell analysis ADCC assay with trastuzumab against NCI-N87; format: cell-based; conditions: 4 h and 24 h; E:T ratio of 2:1
Experimental: The HER2^+ NCI-N87 gastric tumor cell line was used as the target cells. CD16 variant transduced CYNK cells were thawed followed by two days recovery were used as the effector cells. […] Target cells were seeded at 8×10^4 cells/well in the 96-well plates in 100 μl assay buffer for 24 hours at 37° C. in 5% CO2. […] CYNK cells were added post 30 minutes antibodies incubation at 37° C. with 5% CO2.
The xCELLigence real time cell analysis (RTCA) system (ACEA Biosciences, San Diego, CA) was used for the determination of the ADCC response mediated by the combination of antibody and effector cells. This system can determine the real time proliferation or cell death in each well of a specialized 96-well plate with electrodes attached to the bottom E-plate by measuring cell adherence as determined by the impedance of the electrical signal that passes through the plate. The more cells that are attached to the bottom of the well the higher the resulting impedance or cell index that is measured. The cell index over time in wells with effector cells, antibody, and target is compared to the cell index in wells with target alone and is converted to a percent cytolysis.
Target cells were incubated with the effector cells in the presence of the antibodies in 200 μl final volume for 24 hours. The xCELLigence software was then used to determine the percent cytotoxicity at 4 and 24 hours of co-culture time.

[10] = test system: HER2+ NCI-N87 gastric tumor cell line; test: Cytokine secretion assay (Luminex) of CD16 variants transduced CYNK cells with NCI-N87; format: cell-based
Experimental: Two-day in vitro recovered CYNK cells were used in this assay as the effector cells. The HER2^+ NCI-N87 gastric tumor cell line was used as the target cell. […] The supernatant was then collected after 24 h and used for downstream analysis. The cytokine concentrations were determined by Luminex analysis using a customer selected MILLIPLEX MAP magnetic bead kit (EMD Millipore, Billerica, MA, Cat #HCD8MAG-15K-07 for GM-CSF, TNF-α, and IFN-γ) according to the protocol provided by the manufacturer. The data were analyzed using Belysa software (Millipore Sigma).

[11] = test system: human placental CD34+ cells; test: Fold expansion of CD16 variants transduced CYNK cells; format: cell-based
Source text: as §3

[12] = in the presence of Trastuzumab, E:T ratio of 1:1
[13] = in the presence of trastuzumab and NCI-N87
[14] = MOI 200, Myc tag, Sirion Bio LVV

CC(C)c1csc2c(NCCc3c[nH]c4ccccc34)nc(-c3cncc(C#N)c3)nc12 [CRL17, 5-(4-((2-(1H-indol-3-yl)ethyl)amino)-7-isopropylthieno[3,2-d]pyrimidin-2-yl)nicotinonitrile]
cell expansion compared to SR1 [1]: slightly less expansion | CD56+/CD11a+ subpopulation compared to SR1 [2]: increased | killing activities compared to cells cultured with SR1 [3]: increased killing activities

CC(C)c1csc2c(NCCc3c[nH]c4ccccc34)nc(-c3cncc(F)c3)nc12 [CRL18, N-(2-(1H-indol-3-yl)ethyl)-2-(5-fluoropyridin-3-yl)-7-isopropylthieno[3,2-d]pyrimidin-4-amine]
cell expansion compared to SR1 [1]: slightly less expansion | CD56+/CD11a+ subpopulation compared to SR1 [2]: increased | killing activities compared to cells cultured with SR1 [3]: increased killing activities

Fc1cncc(-c2nc(NCCc3c[nH]c4ccccc34)c3occc3n2)c1 [CRL19, N-(2-(1H-indol-3-yl)ethyl)-2-(5-fluoropyridin-3-yl)furo[3,2-d]pyrimidin-4-amine]
cell expansion compared to SR1 [1]: supported cell expansion the best | expansion, differentiation and cytotoxicity profiles compared to SR1 [1]: very similar | CD34 cell expansion [4]: achieved the highest CD34 cell expansion

Cc1cncc(-c2nc(NCCc3c[nH]c4ccccc34)c3occc3n2)c1 [CRL20, N-(2-(1H-indol-3-yl)ethyl)-2-(5-methylpyridin-3-yl)furo[3,2-d]pyrimidin-4-amine]
cell expansion compared to SR1 [1]: supported cell expansion the best | expansion, differentiation and cytotoxicity profiles compared to SR1 [1]: very similar | CD34 cell expansion [4]: achieved the highest CD34 cell expansion

Cc1cncc(-c2nc(NCCc3c[nH]c4ccccc34)c3scc(C(C)C)c3n2)c1 [CRL21, N-(2-(1H-indol-3-yl)ethyl)-7-isopropyl-2-(5-methylpyridin-3-yl)thieno[3,2-d]pyrimidin-4-amine]
cell expansion compared to SR1 [1]: slightly less expansion | CD56+/CD11a+ subpopulation compared to SR1 [2]: increased | killing activities compared to cells cultured with SR1 [3]: increased killing activities

N#Cc1cncc(-c2nc(NCCc3c[nH]c4ccccc34)c3occc3n2)c1 [CRL22, 5-(4-((2-(1H-indol-3-yl)ethyl)amino)furo[3,2-d]pyrimidin-2-yl)nicotinonitrile]
cell expansion compared to SR1 [1]: supported cell expansion the best | expansion, differentiation and cytotoxicity profiles compared to SR1 [1]: very similar | CD34 cell expansion [4]: achieved the highest CD34 cell expansion

CD16VP: high affinity (158 Val) and proteinase cleavage resistant (197Pro) CD16 variant
CD16 expression [5]: ~65% | CD16VP expression after activation [6]: resistant to shedding | CD16 expression ([7]; 6 donors): 61.9% ± 15.4% | CD16 shedding resistance post PMAi stimulation ([8]; 6 donors): Yes | CD16 shedding percentage [8]: 4.3%±3.0% | cytotoxicity change (CYNK+Trastuzumab − CYNK+IgG) compared to NT [9]: significant difference | GM-CSF secretion against NCI-N87 [10, 12]: 5.4 ± 2.7 ng/1 × 10^6 cells | IFNg secretion against NCI-N87 [10, 12]: 1.8 ± 1.6 ng/1 × 10^6 cells | TNFa secretion against NCI-N87 [10, 12]: 0.8 ± 0.3 ng/1 × 10^6 cells | GM-CSF secretion compared to NT [10, 13]: significant difference

Construct #1: CD16 variant: 176 V (also referred to as 158 V); 197 Glycine (G); with or without Myc tag
CD16 expression at Day10, Day35 and post thaw compared to CD16VP ([7]; Lentigen LVV, 6 donors): comparable CD16 expression | CD16 expression at Day10, 21, 28, 35 and 40 compared to CD16VP [7, 14]: comparable CD16 expression | CD16 expression at Day 10 compared to CD16VP [7, 14]: comparable CD16 expression | CD16 shedding post PMAi stimulation ([8]; Myc tag, Sirion Bio LVV): trend of shedding resistance | CD16 shedding percentage [8]: 9.4%±8.5% | cytotoxicity change (CYNK+Trastuzumab − CYNK+IgG) compared to NT [9]: significant difference | GM-CSF secretion compared to NT [10, 13]: significant difference | cytokine secretion (IFNg, TNFa and GM-CSF) compared to CD16VP [10, 13]: no significant difference | fold expansion compared to CD16VP and NT ([11]; Lentigen LVV, n=6 donors): comparable fold expansion | fold expansion compared to CD16VP ([11]; Myc tag, Sirion Bio LVV): comparable fold expansion
